Test results reported in PMC11496704, “Synthesis and cytotoxicity studies of novel N-arylbenzo[h]quinazolin-2-amines” (Beilstein Journal of Organic Chemistry, 2024).

Test system: HuH-7
Assay: Cytotoxicity secondary screen (IC50)
Type: cell-based
Details: Homo sapiens, 48 h exposure, mean of triplicates, NE: no effect
Protocol: (§1) Cell culture. Skin normal fibroblastic cells are purchased from Lonza (Basel, Switzerland), HuH-7, Caco-2, MDA-MB-231, HCT-116, PC3, MCF7 and NCI-H727 cancer cell lines were obtained from ATCC (American Type Culture Collection). Cells are grown at 37 °C, 5% CO2 in ATCC recommended media: DMEM for HuH-7, MDA-MB-231, MDA-MB-468 and fibroblast, EMEM for MCF7 and CaCo-2, McCoy’s for HCT-116 and RPMI for PC3 and NCI-H727. All culture media are supplemented by 10% of FBS, 1% of penicillin-streptomycin and 2 mM glutamine.
(§2) Both studies have been performed following the protocols described in a previous paper, see ref. [2].

Structure (SMILES)	IC50 [µM]
Cc1ccccc1Nc1ncc2ccc3ccccc3c2n1 [Compound 4b, N-(o-tolyl)benzo[h]quinazolin-2-amine]	> 25
Cc1cccc(Nc2ncc3ccc4ccccc4c3n2)c1 [Compound 4c, N-(m-tolyl)benzo[h]quinazolin-2-amine]	> 25

Test system: PC3
Assay: Cytotoxicity secondary screen (IC50)
Type: cell-based
Details: Homo sapiens, PC-3; 48 h exposure, mean of triplicates; NE: no effect
Protocol: as §1, §2

Structure (SMILES)	IC50 [µM]
Cc1ccccc1Nc1ncc2ccc3ccccc3c2n1 [Compound 4b, N-(o-tolyl)benzo[h]quinazolin-2-amine]	> 25
Cc1cccc(Nc2ncc3ccc4ccccc4c3n2)c1 [Compound 4c, N-(m-tolyl)benzo[h]quinazolin-2-amine]	> 25

Test system: normal human fibroblasts
Assay: Cytotoxicity secondary screen (IC50)
Type: cell-based
Details: Fibroblast, 48 h exposure, mean of triplicates, NE: no effect, highest concentration tested 25 μM, read-out: IC50 Fibro
Protocol: as §1, §2

Structure (SMILES)	IC50 [µM]
Cc1ccccc1Nc1ncc2ccc3ccccc3c2n1 [Compound 4b, N-(o-tolyl)benzo[h]quinazolin-2-amine]	> 25
Cc1cccc(Nc2ncc3ccc4ccccc4c3n2)c1 [Compound 4c, N-(m-tolyl)benzo[h]quinazolin-2-amine]	> 25

Test system: Caco-2
Assay: Cytotoxicity secondary screen (IC50)
Type: cell-based
Details: Homo sapiens, 48 h exposure, mean of triplicates, NE: no effect
Protocol: (§3) Next, we performed a cytotoxicity screening of the nineteen molecules 4a–s, at 25 μM, investigating seven representative cancer cell lines: hepatocellular carcinoma HuH-7, colorectal adenocarcinoma CaCo-2, breast carcinoma MDA-MB-231 and MDA-MB-468, colorectal carcinoma HCT-116, prostate carcinoma PC3 and breast carcinoma MCF7. […] For details see: ref. [2] and Supporting Information File 1, Table S1.
as §1, §2

Structure (SMILES)	IC50 [µM]
Cc1ccccc1Nc1ncc2ccc3ccccc3c2n1 [Compound 4b, N-(o-tolyl)benzo[h]quinazolin-2-amine]	> 25
Cc1cccc(Nc2ncc3ccc4ccccc4c3n2)c1 [Compound 4c, N-(m-tolyl)benzo[h]quinazolin-2-amine]	28

Test system: HCT-116
Assay: Cytotoxicity secondary screen (IC50)
Type: cell-based
Details: Homo sapiens, 48 h exposure, mean of triplicates, NE: no effect
Protocol: as §3, §1, §2

Structure (SMILES)	IC50 [µM]
Cc1ccccc1Nc1ncc2ccc3ccccc3c2n1 [Compound 4b, N-(o-tolyl)benzo[h]quinazolin-2-amine]	> 25
Cc1cccc(Nc2ncc3ccc4ccccc4c3n2)c1 [Compound 4c, N-(m-tolyl)benzo[h]quinazolin-2-amine]	18

Test system: Caco-2
Assay: Cytotoxicity primary screen (single dose)
Type: cell-based
Details: single dose 25 μM, 48 h exposure, mean of triplicates
Protocol: as §3, §1, §2
(§4) Table S1: Cytotoxicity studies (single dose at 25µM) of N-arylbenzo[h]quinazolin-2-amines 4a–s
(§5) The toxicity is expressed as the percentage of cell survival (from 100 % to 0 %) over DMSO control after 48 h exposure (mean of triplicates).
(§6) Effect of the solvent (DMSO) was studied at 0.25%.

Structure (SMILES)	percentage of cell survival over DMSO control, CaCo-2 [%]
Cc1ccccc1Nc1ncc2ccc3ccccc3c2n1 [Compound 4b, N-(o-tolyl)benzo[h]quinazolin-2-amine]	56
Cc1cccc(Nc2ncc3ccc4ccccc4c3n2)c1 [Compound 4c, N-(m-tolyl)benzo[h]quinazolin-2-amine]	50
COc1ccc(Nc2ncc3ccc4ccccc4c3n2)cc1 [Compound 4g, N-(4-methoxyphenyl)benzo[h]quinazolin-2-amine]	81
Fc1ccc(Nc2ncc3ccc4ccccc4c3n2)cc1 [Compound 4j, N-(4-fluorophenyl)benzo[h]quinazolin-2-amine]	77
Clc1ccc(Nc2ncc3ccc4ccccc4c3n2)cc1 [Compound 4m, N-(4-chlorophenyl)benzo[h]quinazolin-2-amine]	75
Fc1ccc(Nc2ncc3ccc4ccccc4c3n2)cc1F [Compound 4n, N-(3,4-difluorophenyl)benzo[h]quinazolin-2-amine]	72
Fc1cc(Cl)cc(Nc2ncc3ccc4ccccc4c3n2)c1 [Compound 4p, N-(3-chloro-5-fluorophenyl)benzo[h]quinazolin-2-amine]	54
Cc1cc(Nc2ncc3ccc4ccccc4c3n2)ccc1Br [Compound 4r, N-(4-bromo-3-methylphenyl)benzo[h]quinazolin-2-amine]	76
Fc1cc(Nc2ncc3ccc4ccccc4c3n2)cc(F)c1F [Compound 4s, N-(3,4,5-trifluorophenyl)benzo[h]quinazolin-2-amine]	65

Test system: HuH7
Assay: Cytotoxicity primary screen (single dose)
Type: cell-based
Details: Homo sapiens, Huh-7; single dose 25 μM, 48 h exposure, mean of triplicates; read-out: percentage of cell survival over DMSO control, HuH7
Protocol: as §3, §1, §2, §4, §5, §6

Structure (SMILES)	viability at 25 µM [%]
Cc1ccccc1Nc1ncc2ccc3ccccc3c2n1 [Compound 4b, N-(o-tolyl)benzo[h]quinazolin-2-amine]	69
Cc1cccc(Nc2ncc3ccc4ccccc4c3n2)c1 [Compound 4c, N-(m-tolyl)benzo[h]quinazolin-2-amine]	68
COc1ccc(Nc2ncc3ccc4ccccc4c3n2)cc1 [Compound 4g, N-(4-methoxyphenyl)benzo[h]quinazolin-2-amine]	79
Fc1ccc(Nc2ncc3ccc4ccccc4c3n2)cc1 [Compound 4j, N-(4-fluorophenyl)benzo[h]quinazolin-2-amine]	92
Clc1ccc(Nc2ncc3ccc4ccccc4c3n2)cc1 [Compound 4m, N-(4-chlorophenyl)benzo[h]quinazolin-2-amine]	96
Fc1ccc(Nc2ncc3ccc4ccccc4c3n2)cc1F [Compound 4n, N-(3,4-difluorophenyl)benzo[h]quinazolin-2-amine]	79
Fc1cc(Cl)cc(Nc2ncc3ccc4ccccc4c3n2)c1 [Compound 4p, N-(3-chloro-5-fluorophenyl)benzo[h]quinazolin-2-amine]	80
Cc1cc(Nc2ncc3ccc4ccccc4c3n2)ccc1Br [Compound 4r, N-(4-bromo-3-methylphenyl)benzo[h]quinazolin-2-amine]	80
Fc1cc(Nc2ncc3ccc4ccccc4c3n2)cc(F)c1F [Compound 4s, N-(3,4,5-trifluorophenyl)benzo[h]quinazolin-2-amine]	77

Test system: HCT116
Assay: Cytotoxicity primary screen (single dose)
Type: cell-based
Details: Homo sapiens, HCT-116; single dose 25 μM, 48 h exposure, mean of triplicates; read-out: percentage of cell survival over DMSO control, HCT116
Protocol: as §3, §1, §2, §4, §5, §6

Structure (SMILES)	viability at 25 µM [%]
Cc1ccccc1Nc1ncc2ccc3ccccc3c2n1 [Compound 4b, N-(o-tolyl)benzo[h]quinazolin-2-amine]	79
Cc1cccc(Nc2ncc3ccc4ccccc4c3n2)c1 [Compound 4c, N-(m-tolyl)benzo[h]quinazolin-2-amine]	52
COc1ccc(Nc2ncc3ccc4ccccc4c3n2)cc1 [Compound 4g, N-(4-methoxyphenyl)benzo[h]quinazolin-2-amine]	72
Fc1ccc(Nc2ncc3ccc4ccccc4c3n2)cc1 [Compound 4j, N-(4-fluorophenyl)benzo[h]quinazolin-2-amine]	81
Clc1ccc(Nc2ncc3ccc4ccccc4c3n2)cc1 [Compound 4m, N-(4-chlorophenyl)benzo[h]quinazolin-2-amine]	68
Fc1ccc(Nc2ncc3ccc4ccccc4c3n2)cc1F [Compound 4n, N-(3,4-difluorophenyl)benzo[h]quinazolin-2-amine]	82
Fc1cc(Cl)cc(Nc2ncc3ccc4ccccc4c3n2)c1 [Compound 4p, N-(3-chloro-5-fluorophenyl)benzo[h]quinazolin-2-amine]	17
Cc1cc(Nc2ncc3ccc4ccccc4c3n2)ccc1Br [Compound 4r, N-(4-bromo-3-methylphenyl)benzo[h]quinazolin-2-amine]	100
Fc1cc(Nc2ncc3ccc4ccccc4c3n2)cc(F)c1F [Compound 4s, N-(3,4,5-trifluorophenyl)benzo[h]quinazolin-2-amine]	63

Test system: MCF7
Assay: Cytotoxicity primary screen (single dose)
Type: cell-based
Details: Homo sapiens, single dose 25 μM, 48 h exposure, mean of triplicates, read-out: percentage of cell survival over DMSO control, MCF7
Protocol: as §3, §1, §2, §4, §5, §6

Structure (SMILES)	viability at 25 µM [%]
Cc1ccccc1Nc1ncc2ccc3ccccc3c2n1 [Compound 4b, N-(o-tolyl)benzo[h]quinazolin-2-amine]	70
Cc1cccc(Nc2ncc3ccc4ccccc4c3n2)c1 [Compound 4c, N-(m-tolyl)benzo[h]quinazolin-2-amine]	50
COc1ccc(Nc2ncc3ccc4ccccc4c3n2)cc1 [Compound 4g, N-(4-methoxyphenyl)benzo[h]quinazolin-2-amine]	83
Fc1ccc(Nc2ncc3ccc4ccccc4c3n2)cc1 [Compound 4j, N-(4-fluorophenyl)benzo[h]quinazolin-2-amine]	81
Clc1ccc(Nc2ncc3ccc4ccccc4c3n2)cc1 [Compound 4m, N-(4-chlorophenyl)benzo[h]quinazolin-2-amine]	88
Fc1ccc(Nc2ncc3ccc4ccccc4c3n2)cc1F [Compound 4n, N-(3,4-difluorophenyl)benzo[h]quinazolin-2-amine]	97
Fc1cc(Cl)cc(Nc2ncc3ccc4ccccc4c3n2)c1 [Compound 4p, N-(3-chloro-5-fluorophenyl)benzo[h]quinazolin-2-amine]	91
Cc1cc(Nc2ncc3ccc4ccccc4c3n2)ccc1Br [Compound 4r, N-(4-bromo-3-methylphenyl)benzo[h]quinazolin-2-amine]	85
Fc1cc(Nc2ncc3ccc4ccccc4c3n2)cc(F)c1F [Compound 4s, N-(3,4,5-trifluorophenyl)benzo[h]quinazolin-2-amine]	54

Test system: MDA231
Assay: Cytotoxicity primary screen (single dose)
Type: cell-based
Details: Homo sapiens, MDA-MB-231; single dose 25 μM, 48 h exposure, mean of triplicates; read-out: percentage of cell survival over DMSO control, MDA231
Protocol: as §3, §1, §2, §4, §5, §6

Structure (SMILES)	viability at 25 µM [%]
Cc1ccccc1Nc1ncc2ccc3ccccc3c2n1 [Compound 4b, N-(o-tolyl)benzo[h]quinazolin-2-amine]	86
Cc1cccc(Nc2ncc3ccc4ccccc4c3n2)c1 [Compound 4c, N-(m-tolyl)benzo[h]quinazolin-2-amine]	81
COc1ccc(Nc2ncc3ccc4ccccc4c3n2)cc1 [Compound 4g, N-(4-methoxyphenyl)benzo[h]quinazolin-2-amine]	87
Fc1ccc(Nc2ncc3ccc4ccccc4c3n2)cc1 [Compound 4j, N-(4-fluorophenyl)benzo[h]quinazolin-2-amine]	91
Clc1ccc(Nc2ncc3ccc4ccccc4c3n2)cc1 [Compound 4m, N-(4-chlorophenyl)benzo[h]quinazolin-2-amine]	83
Fc1ccc(Nc2ncc3ccc4ccccc4c3n2)cc1F [Compound 4n, N-(3,4-difluorophenyl)benzo[h]quinazolin-2-amine]	91
Fc1cc(Cl)cc(Nc2ncc3ccc4ccccc4c3n2)c1 [Compound 4p, N-(3-chloro-5-fluorophenyl)benzo[h]quinazolin-2-amine]	68
Cc1cc(Nc2ncc3ccc4ccccc4c3n2)ccc1Br [Compound 4r, N-(4-bromo-3-methylphenyl)benzo[h]quinazolin-2-amine]	101
Fc1cc(Nc2ncc3ccc4ccccc4c3n2)cc(F)c1F [Compound 4s, N-(3,4,5-trifluorophenyl)benzo[h]quinazolin-2-amine]	78

Test system: MDA468
Assay: Cytotoxicity primary screen (single dose)
Type: cell-based
Details: single dose 25 μM, 48 h exposure, mean of triplicates; read-out: percentage of cell survival over DMSO control, MDA468
Protocol: as §3, §1, §2, §4, §5, §6

Structure (SMILES)	viability at 25 µM [%]
Cc1ccccc1Nc1ncc2ccc3ccccc3c2n1 [Compound 4b, N-(o-tolyl)benzo[h]quinazolin-2-amine]	93
Cc1cccc(Nc2ncc3ccc4ccccc4c3n2)c1 [Compound 4c, N-(m-tolyl)benzo[h]quinazolin-2-amine]	65
COc1ccc(Nc2ncc3ccc4ccccc4c3n2)cc1 [Compound 4g, N-(4-methoxyphenyl)benzo[h]quinazolin-2-amine]	90
Fc1ccc(Nc2ncc3ccc4ccccc4c3n2)cc1 [Compound 4j, N-(4-fluorophenyl)benzo[h]quinazolin-2-amine]	95
Clc1ccc(Nc2ncc3ccc4ccccc4c3n2)cc1 [Compound 4m, N-(4-chlorophenyl)benzo[h]quinazolin-2-amine]	88
Fc1ccc(Nc2ncc3ccc4ccccc4c3n2)cc1F [Compound 4n, N-(3,4-difluorophenyl)benzo[h]quinazolin-2-amine]	85
Fc1cc(Cl)cc(Nc2ncc3ccc4ccccc4c3n2)c1 [Compound 4p, N-(3-chloro-5-fluorophenyl)benzo[h]quinazolin-2-amine]	72
Cc1cc(Nc2ncc3ccc4ccccc4c3n2)ccc1Br [Compound 4r, N-(4-bromo-3-methylphenyl)benzo[h]quinazolin-2-amine]	96
Fc1cc(Nc2ncc3ccc4ccccc4c3n2)cc(F)c1F [Compound 4s, N-(3,4,5-trifluorophenyl)benzo[h]quinazolin-2-amine]	78

Test system: PC3
Assay: Cytotoxicity primary screen (single dose)
Type: cell-based
Details: Homo sapiens, PC-3; single dose 25 μM, 48 h exposure, mean of triplicates; read-out: percentage of cell survival over DMSO control, PC3
Protocol: as §3, §1, §2, §4, §5, §6

Structure (SMILES)	viability at 25 µM [%]
Cc1ccccc1Nc1ncc2ccc3ccccc3c2n1 [Compound 4b, N-(o-tolyl)benzo[h]quinazolin-2-amine]	72
Cc1cccc(Nc2ncc3ccc4ccccc4c3n2)c1 [Compound 4c, N-(m-tolyl)benzo[h]quinazolin-2-amine]	60
COc1ccc(Nc2ncc3ccc4ccccc4c3n2)cc1 [Compound 4g, N-(4-methoxyphenyl)benzo[h]quinazolin-2-amine]	82
Fc1ccc(Nc2ncc3ccc4ccccc4c3n2)cc1 [Compound 4j, N-(4-fluorophenyl)benzo[h]quinazolin-2-amine]	78
Clc1ccc(Nc2ncc3ccc4ccccc4c3n2)cc1 [Compound 4m, N-(4-chlorophenyl)benzo[h]quinazolin-2-amine]	74
Fc1ccc(Nc2ncc3ccc4ccccc4c3n2)cc1F [Compound 4n, N-(3,4-difluorophenyl)benzo[h]quinazolin-2-amine]	82
Fc1cc(Cl)cc(Nc2ncc3ccc4ccccc4c3n2)c1 [Compound 4p, N-(3-chloro-5-fluorophenyl)benzo[h]quinazolin-2-amine]	59
Cc1cc(Nc2ncc3ccc4ccccc4c3n2)ccc1Br [Compound 4r, N-(4-bromo-3-methylphenyl)benzo[h]quinazolin-2-amine]	89
Fc1cc(Nc2ncc3ccc4ccccc4c3n2)cc(F)c1F [Compound 4s, N-(3,4,5-trifluorophenyl)benzo[h]quinazolin-2-amine]	50

Test system: MDA-MB-231
Assay: Cytotoxicity secondary screen (IC50)
Type: cell-based
Details: Homo sapiens, 48 h exposure, mean of triplicates, NE: no effect

Structure (SMILES)	IC50 [µM]
Cc1ccccc1Nc1ncc2ccc3ccccc3c2n1 [Compound 4b, N-(o-tolyl)benzo[h]quinazolin-2-amine]	> 25
Cc1cccc(Nc2ncc3ccc4ccccc4c3n2)c1 [Compound 4c, N-(m-tolyl)benzo[h]quinazolin-2-amine]	> 25

Test system: MDA-MB-468
Assay: Cytotoxicity secondary screen (IC50)
Type: cell-based
Details: Homo sapiens, 48 h exposure, mean of triplicates, NE: no effect

Structure (SMILES)	IC50 [µM]
Cc1ccccc1Nc1ncc2ccc3ccccc3c2n1 [Compound 4b, N-(o-tolyl)benzo[h]quinazolin-2-amine]	> 25
Cc1cccc(Nc2ncc3ccc4ccccc4c3n2)c1 [Compound 4c, N-(m-tolyl)benzo[h]quinazolin-2-amine]	22

Test system: MCF7
Assay: Cytotoxicity secondary screen (IC50)
Type: cell-based
Details: Homo sapiens, 48 h exposure, mean of triplicates, NE: no effect

Structure (SMILES)	IC50 [µM]
Cc1ccccc1Nc1ncc2ccc3ccccc3c2n1 [Compound 4b, N-(o-tolyl)benzo[h]quinazolin-2-amine]	> 25
Cc1cccc(Nc2ncc3ccc4ccccc4c3n2)c1 [Compound 4c, N-(m-tolyl)benzo[h]quinazolin-2-amine]	30
